From the supplement of paper PMC10307832

Key:
Assay in all cases: relative viability (nuclei count vs DMSO), 5 days (fraction); higher = more cells survive
SW 1573 = tested on: SW 1573
Summary of the method: (§1)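 Dosing by pin tool came one day after lung cancer cell lines were seeded in 1536-well plates, using either one drug or a fixed anchor-drug dose plus five library-drug doses (not always all listed) in √10 steps. After 5 days, nuclei were counted on 4× images. Relative viability is treated-well nuclei count divided by vehicle-well nuclei count, and values are medians of duplicate plates.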

NCI-H1793 = tested on: NCI-H1793
Summary of the method: as §1

201T = tested on: 201T
Summary of the method: as §1

NCI-H596 = tested on: NCI-H596
Summary of the method: as §1

EPLC-272H = tested on: EPLC-272H
Summary of the method: as §1

NCI-H2087 = tested on: NCI-H2087
Summary of the method: as §1

COR-L23 = tested on: COR-L23
Summary of the method: as §1

NCI-H460 = tested on: NCI-H460
Summary of the method: as §1

HCC-827 = tested on: HCC-827
Summary of the method: as §1

LK-2 = tested on: LK-2
Summary of the method: as §1

BEN = tested on: BEN
Summary of the method: as §1

NCI-H1651 = tested on: NCI-H1651
Summary of the method: as §1

EMC-BAC-2 = tested on: EMC-BAC-2
Summary of the method: as §1

HCC-44 = tested on: HCC-44
Summary of the method: as §1

NCI-H1915 = tested on: NCI-H1915
Summary of the method: as §1

NCI-H2126 = tested on: NCI-H2126
Summary of the method: as §1

NCI-H2347 = tested on: NCI-H2347
Summary of the method: as §1

LXF-289 = tested on: LXF-289
Summary of the method: as §1

NCI-H1650 = tested on: NCI-H1650
Summary of the method: as §1

A-427 = tested on: A-427
Summary of the method: as §1

EKVX = tested on: EKVX
Summary of the method: as §1

## O=C(O)CCCCC(CCSCc1ccccc1)SCc1ccccc1 (centres undefined) [CPI-613] + CC1(C)CCC(c2ccc(Cl)cc2)=C(CN2CCN(c3ccc(C(=O)NS(=O)(=O)c4ccc(N[C@H](CCN5CCOCC5)CSc5ccccc5)c(S(=O)(=O)C(F)(F)F)c4)cc3)CC2)C1 [Navitoclax] (partner 0.5 µM)
SW 1573; first compound 5 µM
  relative viability: 0.871
SW 1573; first compound 15.81 µM
  relative viability: 0.962
SW 1573; first compound 50 µM
  relative viability: 0.792
SW 1573; first compound 158.11 µM
  relative viability: 0.819
SW 1573; first compound 500 µM
  relative viability: 0.904
NCI-H1793; first compound 5 µM
  relative viability: 0.393
NCI-H1793; first compound 50 µM
  relative viability: 0.346
NCI-H1793; first compound 158.11 µM
  relative viability: 0.363
NCI-H1793; first compound 500 µM
  relative viability: 0.1
201T; first compound 5 µM
  relative viability: 1.23
201T; first compound 15.81 µM
  relative viability: 1.2
201T; first compound 50 µM
  relative viability: 1.17
201T; first compound 158.11 µM
  relative viability: 1.14
201T; first compound 500 µM
  relative viability: 1.09
NCI-H596; first compound 5 µM
  relative viability: 1.01
NCI-H596; first compound 15.81 µM
  relative viability: 0.925
NCI-H596; first compound 50 µM
  relative viability: 1.11
NCI-H596; first compound 158.11 µM
  relative viability: 0.362
NCI-H596; first compound 500 µM
  relative viability: 0.0344
EPLC-272H; first compound 5 µM
  relative viability: 1.24
EPLC-272H; first compound 15.81 µM
  relative viability: 0.897
EPLC-272H; first compound 50 µM
  relative viability: 1.11
EPLC-272H; first compound 158.11 µM
  relative viability: 0.86
EPLC-272H; first compound 500 µM
  relative viability: 0.765
NCI-H2087; first compound 5 µM
  relative viability: 1.03
NCI-H2087; first compound 15.81 µM
  relative viability: 0.953
NCI-H2087; first compound 50 µM
  relative viability: 0.926
NCI-H2087; first compound 158.11 µM
  relative viability: 0.135
NCI-H2087; first compound 500 µM
  relative viability: 0.0127
COR-L23; first compound 5 µM
  relative viability: 1.07
COR-L23; first compound 15.81 µM
  relative viability: 0.913
COR-L23; first compound 50 µM
  relative viability: 0.987
COR-L23; first compound 158.11 µM
  relative viability: 0.327
COR-L23; first compound 500 µM
  relative viability: 0.0196
NCI-H460; first compound 5 µM
  relative viability: 1.12
NCI-H460; first compound 15.81 µM
  relative viability: 1.09
NCI-H460; first compound 50 µM
  relative viability: 1.03
NCI-H460; first compound 158.11 µM
  relative viability: 0.29
NCI-H460; first compound 500 µM
  relative viability: 0.0105
HCC-827; first compound 5 µM
  relative viability: 0.983
HCC-827; first compound 15.81 µM
  relative viability: 0.96
HCC-827; first compound 50 µM
  relative viability: 0.877
HCC-827; first compound 158.11 µM
  relative viability: 0.414
HCC-827; first compound 500 µM
  relative viability: 0.065
LK-2; first compound 5 µM
  relative viability: 0.957
LK-2; first compound 15.81 µM
  relative viability: 0.922
LK-2; first compound 50 µM
  relative viability: 1.05
LK-2; first compound 158.11 µM
  relative viability: 0.966
LK-2; first compound 500 µM
  relative viability: 0.87
BEN; first compound 5 µM
  relative viability: 0.0595
BEN; first compound 15.81 µM
  relative viability: 0.0465
BEN; first compound 50 µM
  relative viability: 0.0686
BEN; first compound 158.11 µM
  relative viability: 0.0624
BEN; first compound 500 µM
  relative viability: 0.0516
NCI-H1651; first compound 5 µM
  relative viability: 1.04
NCI-H1651; first compound 15.81 µM
  relative viability: 0.866
NCI-H1651; first compound 50 µM
  relative viability: 1
NCI-H1651; first compound 158.11 µM
  relative viability: 0.17
NCI-H1651; first compound 500 µM
  relative viability: 0.152
EMC-BAC-2; first compound 5 µM
  relative viability: 1.15
EMC-BAC-2; first compound 15.81 µM
  relative viability: 1.13
EMC-BAC-2; first compound 50 µM
  relative viability: 1.15
EMC-BAC-2; first compound 158.11 µM
  relative viability: 1.01
EMC-BAC-2; first compound 500 µM
  relative viability: 1.06
HCC-44; first compound 5 µM
  relative viability: 1.03
HCC-44; first compound 15.81 µM
  relative viability: 1.08
HCC-44; first compound 50 µM
  relative viability: 1.07
HCC-44; first compound 158.11 µM
  relative viability: 0.322
HCC-44; first compound 500 µM
  relative viability: 0.0385
NCI-H1915; first compound 5 µM
  relative viability: 0.781
NCI-H1915; first compound 15.81 µM
  relative viability: 0.778
NCI-H1915; first compound 50 µM
  relative viability: 0.724
NCI-H1915; first compound 158.11 µM
  relative viability: 0.552
NCI-H1915; first compound 500 µM
  relative viability: 0.55
NCI-H2126; first compound 5 µM
  relative viability: 0.9
NCI-H2126; first compound 15.81 µM
  relative viability: 0.805
NCI-H2126; first compound 50 µM
  relative viability: 0.815
NCI-H2126; first compound 158.11 µM
  relative viability: 0.662
NCI-H2126; first compound 500 µM
  relative viability: 0.645
NCI-H2347; first compound 5 µM
  relative viability: 0.748
NCI-H2347; first compound 15.81 µM
  relative viability: 0.747
NCI-H2347; first compound 50 µM
  relative viability: 0.702
NCI-H2347; first compound 158.11 µM
  relative viability: 0.768
NCI-H2347; first compound 500 µM
  relative viability: 0.734
LXF-289; first compound 5 µM
  relative viability: 0.898
LXF-289; first compound 15.81 µM
  relative viability: 0.894
LXF-289; first compound 50 µM
  relative viability: 0.905
LXF-289; first compound 158.11 µM
  relative viability: 0.157
LXF-289; first compound 500 µM
  relative viability: 0.0115
NCI-H1650; first compound 5 µM
  relative viability: 1.17
NCI-H1650; first compound 15.81 µM
  relative viability: 1.25
NCI-H1650; first compound 50 µM
  relative viability: 1.08
NCI-H1650; first compound 158.11 µM
  relative viability: 0.16
NCI-H1650; first compound 500 µM
  relative viability: 0.034
A-427; first compound 5 µM
  relative viability: 0.974
A-427; first compound 15.81 µM
  relative viability: 0.919
A-427; first compound 50 µM
  relative viability: 0.829
A-427; first compound 158.11 µM
  relative viability: 0.342
A-427; first compound 500 µM
  relative viability: 0.273
EKVX; first compound 5 µM
  relative viability: 0.945
EKVX; first compound 15.81 µM
  relative viability: 0.875
EKVX; first compound 50 µM
  relative viability: 0.898
EKVX; first compound 158.11 µM
  relative viability: 0.483
EKVX; first compound 500 µM
  relative viability: 0.951
